Values of other authors as cited in patent publication US9510493B2, “Mixture of hydrofluoroolefin and fluoroketone for use as an insulation and/or ARC extinguishing medium and a gas insulated medium-voltage electrical device comprising same” (priority 2011, dated 2016).

What was measured:
humans = details: average limit concentration, 8 hours per day for 5 days per week, without noxious effect
animal population = details: causing death of 50% of an animal population

Structure (SMILES) | occupational exposure limit OEL (humans) | lethal dose DL50 (animal population)
O=C(C(F)(F)F)C(F)(C(F)(F)F)C(F)(F)F [C5K, decafluoro-2-methylbutan-3-one] | 1 000 ppm | more than 200 000 ppm
F/C=C/C(F)(F)F [HFO-1234ze, trans-1,3,3,3-tetrafluoro-1-propene] | 1 000 ppm | > 200 000 ppm
